Reference: the NIST ThermoML archive (doi:10.1021/je500110d)
± gives the expanded uncertainty stated by the source.

Assays:
[1] = Molar enthalpy of transition or fusion; settings: Crystal; DSC
[2] = 298.15 K, Liquid, Gas chromatography
[3] = 298.15 K, Metastable liquid, Gas chromatography

For `CCCCCCCCOC(=O)c1ccccc1C(=O)OCCCCCCCC` [dioctyl 1,2-benzenedicarboxylate], the “vapor or sublimation pressure” value [2] was 5.5e-09 ± 1.1e-08 kPa.

With `COC(=O)c1ccc(C(=O)OC)cc1` [dimethyl 1,4-benzenedicarboxylate] the “vapor or sublimation pressure” value [3] was 2.14e-07 ± 3.1e-08 kPa.

With `CCCCOC(=O)c1ccccc1C(=O)OCc1ccccc1` [benzyl butyl 1,2-benzenedioate] the “vapor or sublimation pressure” value [2] was 2e-07 ± 1e-07 kPa.

In the case of `O=C(OC1CCCCC1)c1ccccc1C(=O)OC1CCCCC1` [dicyclohexyl phthalate], the “Molar enthalpy of transition or fusion” value [1] is reported as 7.72 ± 0.693 kcal/mol, the “vapor or sublimation pressure” value [3] is reported as 8e-08 ± 2e-08 kPa and the Triple point temperature (Crystal, DTA) is reported as 336.5 ± 0.7 K.

For `CCCCOC(=O)c1ccccc1C(=O)OCCCC` [dibutyl phthalate], the “vapor or sublimation pressure” value (333.2 K, Liquid, Transpiration method) was 0.000224 ± 9e-06 kPa, the “vapor or sublimation pressure” value (338.4 K, Liquid, Transpiration method) was 0.000365 ± 1.4e-05 kPa and the “vapor or sublimation pressure” value (343.4 K, Liquid, Transpiration method) was 0.000586 ± 2.3e-05 kPa. For the same compound, the “vapor or sublimation pressure” value (348 K, Liquid, Transpiration method) was 0.000838 ± 3.3e-05 kPa, the “vapor or sublimation pressure” value (353.6 K, Liquid, Transpiration method) was 0.0014 ± 5e-05 kPa and the “vapor or sublimation pressure” value (358.7 K, Liquid, Transpiration method) was 0.00215 ± 8e-05 kPa. For the same compound, the “vapor or sublimation pressure” value (363.7 K, Liquid, Transpiration method) was 0.00316 ± 0.00012 kPa, the “vapor or sublimation pressure” value (368.7 K, Liquid, Transpiration method) was 0.00459 ± 0.00018 kPa and the “vapor or sublimation pressure” value (373.6 K, Liquid, Transpiration method) was 0.00675 ± 0.00026 kPa. For the same compound, the “vapor or sublimation pressure” value (378.5 K, Liquid, Transpiration method) was 0.00948 ± 0.00037 kPa.

For `CCCCC(CC)COC(=O)c1ccc(C(=O)OCC(CC)CCCC)cc1` (configuration not stated) [bis(2-ethylhexyl) terephthalate], the “vapor or sublimation pressure” value [2] was 5.4e-09 ± 1e-08 kPa.
